Data from patent publication US6329378A, “Hydrazone, hydrazine and thiosemicarbazone derivatives as antifungal agents” (Anadys Pharmaceuticals, Inc., priority 2000, dated 2001).
≈ marks a conversion by molar mass, not a printed value.

Experiments:
[1] = system: C. albicans; test: MIC, broth microdilution (NCCLS M27-A), C. albicans; assay type: cell-based, Candida albicans; details: 48 hours, C. albicans ATCC 10231; for MIC C. albicans: 35° C.; for MIC: Candida albicans, ATCC10231, 35° C.
Procedure: (§1) Compounds of the invention were tested for antifungal susceptibility using broth microdilution assay established by the National Committee for Clinical Laboratory Standards, in NCCLS Document M27-A, which is hereby incorporated by reference. Minimum inhibitory concentrations (MICs) and minimum fungicidal concentrations (MFCs) were measured.
(§2) Yeasts (Saccharomyces cerevisiae and Candida albicans) are cultured on SDA plates in a 35° C. incubator. Strains on SDA plates are stored at 4° C. and used as working stock cultures.
(§3) Inoculum for susceptibility testing is prepared from fresh 24 hour cultures. 5-10 colonies are scraped from the plate and suspended in three milliliters of sterile 0.85% saline (8.5 g/liter NaCl). The cell density of the solution is determined by measuring the absorbance in a spectrophotometer (Shimadzu UV-1201S UV-VIS Spectrophotometer) set at 600 nm. An absorbance value between 0.1 and 0.4 is required for an accurate reading.
(§4) For Candida albicans strains ATCC 10231, 1.0 OD600 unit is approximately 10^7 cells per ml. For Saccharomyces cerevisiae strain CTY552, 1.0 OD600 unit is slightly less than 10^7 cells per ml. Cell suspensions are diluted with the appropriate medium (typically RPMI-1640) to OD600 =0.0003 for Candida and OD600 =0.0004 for Saccharomyces. The diluted suspension contains approximately 3×10^3 cells per ml (this is a 2×concentration inoculum). Two 100 μl aliquots of this dilution are spread on SDA plates and incubated at 35° C. for 1-2 days to determine the precise number of colony forming units. An acceptable range for the inoculum (2×) is 1-5×10^3 cfu/ml (100-500 for 100 μl). Following two-fold dilution of the inoculum with compound, the final concentration of cells will be 0.5-2.5×10^3 per ml. The inoculum is kept at 4° C. and used within a few hours.
(§5) Stock solutions and concentrations tested will vary from compound to compound. In general, though, stock solutions of 12.8 mg/ml in DMSO (Sigma D-8779) are prepared. This will allow for a 128 μg/ml starting test concentration containing 1% DMSO. Stock solutions are stored at -20° C. and dilutions for antifungal testing are freshly prepared before each assay.
(§6) Stock solutions of Amphotericin B and Itraconazole are prepared at 1.6 mg/ml in DMSO. Amphotericin B is sold as a powder that is approximately 80% Amphotericin B. Stock solutions are made accordingly (2.0 mg of powder for a 1 ml solution of 1.6 mg/ml Amphotericin B).
(§7) Both of these (control and test compounds) represent 1:50 dilutions. For an assay with three fungal strains, 40 microliters of a stock solution are diluted to 2.0 ml with room temperature medium.
(§8) Antifungal susceptibility tests are setup in polystyrene, 96-well, flat bottom plates (Costar 9017). To every well in columns 2-12 is added 100 microliters of media. An electronic multichannel (12) pipettor with no tip on channel one is used. To every well in column one is added 200 microliters of diluted compound (32 μg/ml for Amphotericin B and Itraconazole controls, 256 μg/ml for test compounds, 100-fold dilution for natural product extracts). A manual multichannel (8) pipettor is then used to set up a series of 2-fold dilutions. 100 microliters is removed from each well of column one and mixed with 100 microliters in column 2. This is done successively (column two to column three etc.) to produce a set of 11 serial dilutions (column 12 is a drug free control).
(§9) To every well in two rows, 100 μl of inoculum (2×) of a single strain is added. To the final two rows on the plate (G & H), only media is added. Addition of inoculum is best accomplished using an electronic multichannel (12) pipettor. This setup (see below) creates a starting cell density of […] (100-500 per well) and drug concentration ranging from 16 μg/ml to […] for controls (Amphotericin B and Itraconazole), 128 μg/ml to 0.125 μg/ml for pure test compounds, and 200 to 204, 800-fold dilutions for natural product extracts.

[2] = system: A. Nidulans; test: MIC, broth microdilution (NCCLS M27-A), A. nidulans; assay type: cell-based; details: 35° C., 48 hours; for MIC: Aspergillus nidulans
Procedure: as §1
Filamentous fungi (Aspergillus spp.) is cultured on PDA plates in a 35° C. incubator. Inoculum of Aspergillus for susceptibility testing is prepared from plates incubated at 35° C. for 5 days. Colonies are covered with 5 ml of sterile 0.85% saline (8.5 g/liter NaCl) and gently rocked for 10-15 minutes. To dislodge the conidia, an automatic pipettor is used to gently wash over the colonies. The saline solution is removed from the plate and the heavy particles are allowed to settle for 3-5 minutes. The upper suspension is removed and vortexed for 15 sec. The turbidity of the solution is determined by measuring the absorbance in a spectrophotometer (Shimadzu UV-1201S UV-VIS Spectrophotometer) set at 600 nm. An absorbance value between 0.1 and 0.4 is required for an accurate reading.
The cell suspension is diluted with the appropriate medium (typically RPMI-1640) to OD600 =0.0004. The final suspension should contain approximately 3×10^3 cfu per ml (this is a 2×concentrationinoculum). Two 100 μl aliquots of this dilution are spread on SDA plates and incubated at 35° C. for 1-2 days to determine the precise number of colony forming units. An acceptable range for the inoculum (2×) is 1-5×10^3 cfu/ml (100-500 for 100 μl). Following two-fold dilution of the inoculum with compound, the final concentration of cells will be 0.5-2.5×10^3 per ml. The inoculum is kept at 4° C. and used within a few hours.
as §5, §6, §7, §8, §9

[3] = system: S. serevisiae; test: MIC, broth microdilution (NCCLS M27-A), S. cerevisiae; assay type: cell-based, Saccharomyces cerevisiae; details: for MIC S. serevisiae: broth microdilution, 35° C., 48 hours, S. cerevisiae CTY552; for MIC: Saccharomyces cerevisiae, 48 h, read-out: MIC S. serevisiae
Procedure: as §1, §2, §3, §4, §5, §6
(§10) Stock solutions of control compounds (1.6 mg/ml, Amphotericin B or Itraconazole) are initially diluted in medium to a concentration of 32 μg/ml while stock solutions of test compounds (typically 12.8 mg/ml) are diluted to 256 μg/ml. Both of these (control and test compounds) represent 1:50 dilutions. For an assay with three fungal strains, 40 microliters of a stock solution are diluted to 2.0 ml with room temperature medium.
as §8
(§11) To every well in two rows, 100 μl of inoculum (2×) of a single strain is added. To the final two rows on the plate (G & H), only media is added. Addition of inoculum is best accomplished using an electronic multichannel (12) pipettor. […]

[4] = system: C. albicans; test: Minimum fungicidal concentration (MFC), C. albicans; assay type: cell-based, Candida albicans; details: viability on SDA plate, 35° C.; for MFC: Candida albicans
Procedure: as §1, §2, §3, §4, §5, §6, §10, §8, §11

Row | Compound | MIC C. albicans [1] [µg/mL] | MIC A. Nidulans [2] [µg/mL] | MIC S. serevisiae [3] [µg/mL] | MFC C. albicans [4] [µg/mL] | MIC [1] [µg/mL] | MIC [2] [µg/mL] | MIC [3] [µg/mL] | MFC [4] [µg/mL]
1 | 3,5-dichloro-2-hydroxybenzaldehyde-N-(3-chloro-2-pyrazinyl)hydrazine [(16)] | 8 | 128 | 8 | > 128 |  |  |  | 
2 | COc1nccnc1N/N=C/c1cc(Cl)cc(Cl)c1O [(1), 3,5-dichloro-2-hydroxybenzaldehyde-N-(3-methoxy-2-pyrazinyl)hydrazone] |  |  |  |  | 1 (≈ 3.19 µM) | 2 (≈ 6.39 µM) | 1 (≈ 3.19 µM) | > 128
3 | COc1nccnc1NN=Cc1cc(Cl)ccc1O [(2)] |  |  |  |  | 1 (≈ 3.59 µM) | 2 (≈ 7.18 µM) | 1 (≈ 3.59 µM) | > 128
4 | COc1nccnc1NN=Cc1cccc(F)c1O [(3)] |  |  |  |  | 0.5 (≈ 1.91 µM) | 2 (≈ 7.63 µM) | 1 (≈ 3.81 µM) | > 128
5 | COc1nccnc1NN=Cc1ccccc1O [(4)] |  |  |  |  | 1 (≈ 4.09 µM) | 2 (≈ 8.19 µM) | 1 (≈ 4.09 µM) | > 128
6 | COc1nccnc1N/N=C/c1ccccn1 [(10)] |  |  |  |  | 2 (≈ 8.72 µM) | 2 (≈ 8.72 µM) | 1 (≈ 4.36 µM) | > 128
7 | CCOc1cccc(C=NNc2nccnc2OC)c1O [(11), 3-ethoxy-2-hydroxybenzaldehyde-N-(3-methoxy-2-pyrazinyl)hydrazone] |  |  |  |  | 2 (≈ 6.94 µM) | 2 (≈ 6.94 µM) | 1 (≈ 3.47 µM) | > 128
8 | COc1nccnc1NN=Cc1cccc([N+](=O)[O-])c1O [(12), 2-hydroxy-3-nitrobenzaldehyde-N-(3-methoxy-2-pyrazinyl)hydrazone] |  |  |  |  | 4 (≈ 13.8 µM) | 8 (≈ 27.7 µM) | 4 (≈ 13.8 µM) | > 128
9 | COc1ccc(C=NNc2nccnc2OC)c(O)c1 [(13), 2-hydroxy-4-methoxybenzaldehyde-N-(3-methoxy-2-pyrazinyl)hydrazone] |  |  |  |  | 1 (≈ 3.65 µM) | 4 (≈ 14.6 µM) | 0.5 (≈ 1.82 µM) | > 128
10 | COc1cc(Br)cc(C=NNc2nccnc2OC)c1O [(14), 5-bromo-2-hydroxy-3-methoxybenzaldehyde-N-(3-methoxy-2-pyrazinyl)hydrazone] |  |  |  |  | 0.5 (≈ 1.42 µM) | 1 (≈ 2.83 µM) | 0.5 (≈ 1.42 µM) | > 128
11 | COc1ccc(Br)c(C=NNc2nccnc2OC)c1O [(15), 6-bromo-2-hydroxy-3-methoxybenzaldehyde-N-(3-methoxy-2-pyrazinyl)hydrazone] |  |  |  |  | 1 (≈ 2.83 µM) | 8 (≈ 22.7 µM) | 1 (≈ 2.83 µM) | > 128
12 | Oc1c(Cl)cc(Cl)cc1/C=N/NC(=S)Nc1cc(C(F)(F)F)cc(C(F)(F)F)c1 [(35), N-[3,5bis(trifluoromethyl)phenyl]-2-[(E)-(3,5-dichloro-2-hydroxyphenyl)methylidene]-1-hydrazonecarbothioamide] |  |  |  |  | 2 (≈ 4.2 µM) | 4 (≈ 8.4 µM) | 2 (≈ 4.2 µM) | > 128
13 | Oc1cc(OCc2ccccc2)ccc1/C=N/NC(=S)Nc1cccc(C(F)(F)F)c1 [(42)] |  |  |  |  | 0.25 (≈ 0.561 µM) | 0.25 (≈ 0.561 µM) | 0.25 (≈ 0.561 µM) | > 128
14 | O=C(O)c1ccc(COc2ccc(/C=N/NC(=S)Nc3ccc(Cl)cc3)c(O)c2)cc1 [(47), N-[(4-chloro-phenyl)]-2-[(E)-(4-carboxyl-benzyloxy-2-hydroxyphenyl)methylidene]-1-hydrazonecarbothiamide] |  |  |  |  | 2 (≈ 4.39 µM) | 0.5 (≈ 1.1 µM) | 1 (≈ 2.19 µM) | 
15 | CCN(CC)c1ccc(/C=N/NC(=S)Nc2cccc(C(F)(F)F)c2)c(O)c1 [(48)] |  |  |  |  | 1 (≈ 2.44 µM) | 0.5 (≈ 1.22 µM) | 0.5 (≈ 1.22 µM) | > 128
16 | Oc1cc(N2CCOCC2)ccc1/C=N/NC(=S)Nc1cccc(C(F)(F)F)c1 [(49)] |  |  |  |  | 2 (≈ 4.71 µM) | 0.5 (≈ 1.18 µM) | 1 (≈ 2.36 µM) | > 128
17 | Cc1cc(C)cc(NC(=S)N/N=C/c2ccc(OCc3ccccc3)cc2O)c1 [(50)] | 1 (≈ 2.47 µM) | 0.5 (≈ 1.23 µM) | 0.5 (≈ 1.23 µM) |  |  |  |  | 
18 | O=S(=O)(c1ccc(NC(=S)N/N=C/c2ccc(OCc3ccccc3)cc2O)cc1)N1CCCCC1 [(51)] | 16 (≈ 30.5 µM) | 1 (≈ 1.91 µM) | 0.5 (≈ 0.953 µM) |  |  |  |  | 
19 | N-[(3-trifluoromethyl)phenyl)]-2-[(E)-(4-allyl-phenyl)-benzyloxy-2-hydroxyphenyl)methylidene]-1-hydrazonecarbothiamide [(44)] | 8 | 2 | 2 |  |  |  |  | 
